This note sets out measurements from patent publication US5840721A, “Imidazole derivatives as MDR modulators” (Ontogen Corporation, priority 1997, dated 1998).

This test concerns CEM/VLB1000 cell line. As to the kind of experiment: Cytotoxicity potentiation: enhancement of vinblastine cytotoxicity in MDR cell line (alamar blue). In kind it is cell-based, human. The following applies: Homo sapiens, midpoint of minimum and maximum cytotoxicity induced by 3-5 μg/mL vinblastine and compound, 48 hours incubation, alamar blue 24 hours, read-out: Cytotocicity Potentiation (EC50). As to the method:
Multidrug-resistant cell lines are easily obtainable for in vitro determination of drug sensitization by compounds of the present invention. In vitro potentiation of antineoplastic cytotoxicity by the imidazole derivatives of the present invention was measured in both CEM/VLB1000 and SK/VLB1000 cell lines. The multidrug resistant cell lines were obtained from Dr. Victor Ling, Ontario Cancer Institute, Toronto, Canada. The CEM/VLB 1000 cell line was maintained as a suspension in minimum essential medium supplemented with 10% fetal bovine serum in a humidied atmosphere of 95% air and 5% CO2 while the SK/VLB 1000 cell line was maintained as adherent cells using the identical medium conditions as the CEM cells. The CEM/VLB 1000 cells were seeded at a density of 5×10^4 cells/well in a 96 well microtiter plate while the SK/VLB 1000 cell line was seeded at a density of 2,500 cells/well after trypsinization.
In general terms: Alamar Blue is a resazurin reagent that responds to reducing activity.
For orientation: EC50 means the concentration needed to bring the measured effect to its halfway point. Take `CCOC/C=C/c1ccc(-c2nc(-c3ccc(OC)cc3)c(-c3ccc(OC)cc3)n2CCCn2ccnc2)cc1` [Example 105, 1-(3-imidazole-1-yl-propyl)-2-[4-(3-ethoxy-trans-1-propen-1-yl)phenyl]-4,5bis (4-dimethoxyphenyl) imidazole]: the EC50 was 650 nM.

Take `CCOC/C=C/c1ccc(-c2nc(-c3ccc(OCC)cc3)c(-c3ccc(OCC)cc3)n2CCCn2ccnc2)cc1` [Example 106, 1-(3-imidazole-1-yl-propyl)-2-[4-(3-ethoxy-trans-1-propen-1-yl)phenyl]-4,5bis (4-diethoxyphenyl) imidazole]: the EC50 was determined as 380 nM.

Regarding `CCOC/C=C/c1ccc(-c2nc(-c3ccc(OC(C)C)cc3)c(-c3ccc(OC(C)C)cc3)n2CCCn2ccnc2)cc1` [Example 107, 1-(3-imidazole-1-yl-propyl)-2-[4-(3-ethoxy-trans-1-propen-1-yl)phenyl]-4,5bis (4-diisopropyloxyphenyl) imidazole], the EC50 was determined as 490 nM.

For `CCOC/C=C/c1ccc(-c2nc(-c3ccc(N(CC)CC)cc3)c[nH]2)cc1` [Example 108, 2-[4-(3-ethoxy-trans-1-propen-1-yl)phenyl]-4-(4-N,N-diethylphenyl) imidazole], the half-maximal effective concentration (EC50) was found to be 300 nM.

With `CCOC/C=C/c1ccc(-c2nc(-c3ccc(OC)cc3)c[nH]2)cc1` [Example 109, 2-[4-(3-ethoxy-trans-1-propen-1-yl)phenyl]-4-(4-methoxyphenyl) imidazole], the EC50 is 1850 nM.

Turning to `CN(C)c1ccc(-c2nc(-c3ccc(/C=C/CO)cc3)n(C)c2-c2ccc(N(C)C)cc2)cc1` [Example 114, 1-methyl-2-[4-(3-hydroxy-trans-1-propen-1-yl)phenyl]-4,5-bis (4-N,N-dimethylaminophenyl) imidazole], the EC50 was found to be 630 nM.

As to `CN(C)c1ccc(-c2nc(-c3ccc(/C=C/COC(=O)C(C)(C)C)cc3)[nH]c2-c2ccc(N(C)C)cc2)cc1` [Example 115, 2-[4-(3-pivalate-trans-1-propen-1-yl)phenyl]-4,5-bis (4-N,N-dimethylaminophenyl) imidazole], the EC50 was 480 nM.

For `CC(=O)/C=C/c1ccc(-c2nc(-c3ccc(N(C)C)cc3)c(-c3ccc(N(C)C)cc3)[nH]2)cc1` [Example 116, 2-[4-(3-methylcarbonyl-trans-1-propen-1-yl)phenyl]-4,5-bis (4-N,N-dimethylaminophenyl) imidazole], the EC50 came to 230 nM.

In the case of `CCOC/C=C/c1ccc(-c2nc3cc(OC)ccc3[nH]2)cc1` [Example 118], the EC50 came to 1000 nM.

Consider `CCOC/C=C/c1ccc(-c2nc(-c3ccc(NC(C)C)cc3)c(-c3ccc(NC(C)C)cc3)[nH]2)cc1` [Example 119, 2-[4-(3-ethoxy-trans-1-propen-1-yl)phenyl]-4,5-bis-(4-N-isopropylaminophenyl) imidazole], for which the EC50 was 67 nM.

With `CCNc1ccc(-c2[nH]c(-c3ccc(/C=C/COCC)cc3)nc2-c2ccc(NC(C)C)cc2)cc1` [Example 120, 2-[4-(3-ethoxy-trans-1-propen-1-yl)phenyl]-4-(4-N-ethylaminophenyl)-5(4-N-isopropylaminophenyl) imidazole], the EC50 came to 53 nM.

As for `CCOC/C=C/c1ccc(-c2nc(-c3ccc(NC(C)C)cc3)c(-c3ccc(F)cc3)[nH]2)cc1` [Example 121, 2-[4-(3-ethoxy-trans-1-propen-1-yl)phenyl]-4-(4-fluorophenyl)-5-(4-N-isopropylaminophenyl) imidazole], the EC50 worked out at 120 nM.

Take `CCCN(CCC)c1ccc(-c2c[nH]c(-c3ccc(/C=C/COCC)cc3)n2)cc1` [Example 122, 2-[4-(3-ethoxy-trans-1-propen-1-yl)phenyl]-4-(4-N,N-dipropylphenyl) imidazole]: the EC50 came out at 280 nM.

`CCOC/C=C/c1ccc(-c2nc(-c3ccc(NC(C)C)cc3)c[nH]2)cc1` [Example 123, 2-[4-(3-ethoxy-trans-1-propen-1-yl)phenyl]-4-(4-N-isopropylphenyl) imidazole]: the EC50 was 340 nM.
